Reference: US20240342239A1, “TREATMENT OF NON-CYSTIC FIBROSIS BRONCHIECTASIS” (Zambon S.P.A., priority 2021, published 2024)
Entries after “also recorded” stand apart in the source; their conditions may differ.

Legend:
[1] = tested on: NCFB patients; conditions: cited from earlier work
[2] = tested on: subjects with NCFB chronically infected with P. aeruginosa; test: PROMIS 1 Phase III clinical study: NCFB pulmonary exacerbations, inhaled CMS via I-neb vs placebo; format: in vivo, human; conditions: for hazard ratio, time to first NCFB pulmonary exacerbation: CMS vs placebo, Cox proportional hazard model; for rate ratio of CMS relative to placebo, NCFB pulmonary exacerbation annual rate: LS Mean
Description: As used herein the term “pulmonary exacerbation” in a patient refers to the presence concurrently of at least 3 of the following 8 symptoms/signs for at least 24 hours: • increased cough; • increased sputum volume and/or consistency; • increased sputum purulence; • new or increased haemoptysis; • increased wheezing; • increased dyspnoea; • increased fatigue/malaise; • episodes of fever (temperature≥38° C.) • and it is clinically determined that the subject requires and is prescribed systemic antibiotic therapy. A new pulmonary exacerbation is only considered to occur if there are at least 14 days between the end of the course of systemic antibiotics and the onset of new qualifying symptoms. (Note: A pulmonary exacerbation is reported as an Adverse Event or serious AE [SAE]).
A “severe” pulmonary exacerbation is herein defined a pulmonary exacerbation requiring intravenous antibiotics and/or hospitalisation.
A supportive analysis has been conducted using an alternative definition of NCFB pulmonary exacerbation. The re-classification of exacerbations has been conducted in a blinded fashion (before database lock). The alternative definition of pulmonary exacerbations used will be deterioration in three or more of the following key symptoms for at least 48 hours: • Cough • Sputum volume and/or consistency • Sputum purulence • Breathlessness and/or exercise tolerance (dyspnoea) • Fatigue and/or malaise • Haemoptysis • And: • a physician determines a change in bronchiectasis treatment is required when other potential causes of clinical deterioration have been discounted.
The number of NCFB pulmonary exacerbations during the treatment period has been analysed using a Poisson regression model allowing for over-dispersion including treatment, pooled sites and use of stable concomitant therapy with oral macrolides as fixed effects and log-time on trial as an offset.
The number and the percentage of subjects with NCFB pulmonary exacerbations, the number of pulmonary exacerbations and the total follow-up time in years have been summarised by treatment group. The adjusted yearly mean exacerbation rates in each treatment group and the adjusted rate ratio with their 95% CIs has been estimated by the model.
For the analysis, 2 pulmonary exacerbations have been considered as a single episode in cases where the second exacerbation starts less than 14 days after the end of the antibiotic therapy (oral or intravenous) for the first pulmonary exacerbation.
The time to the first NCFB pulmonary exacerbation and the time to the first severe NCFB pulmonary exacerbation has been calculated as the time in days from the date of the first dose of IMP to the date at which the first pulmonary exacerbation occurs (i.e. date at which the first pulmonary exacerbation occurs—date of the first dose+1). A […] has been used to compare the treatment groups. Subjects completing the trial without NCFB pulmonary exacerbations or who are discontinued prematurely without exacerbations, will be considered as censored at the time of their last follow-up. […]
The primary variable for this trial is the mean annual NCFB pulmonary exacerbation rate (frequency of pulmonary exacerbations) over 12 months.

[3] = tested on: subjects with NCFB chronically infected with P. aeruginosa; test: PROMIS 1: quality of life by Saint George's Respiratory Questionnaire (SGRQ); format: in vivo, human; conditions: at the end of the CMS treatment
Text: The SGRQ total score and domain scores (Symptoms, Activity and Impact scores) has been summarised at each visit by treatment group using descriptive statistics. Changes from baseline (Visit 2) have been also summarised for each post-baseline visit by treatment group. Scores have been computed according to the SGRQ manual.
SGRQ total score has been analysed using a linear mixed model for repeated measures including treatment, visit, treatment-by-visit interaction, use of stable concomitant therapy with oral macrolides and pooled sites as fixed effects and baseline value as covariate. An unstructured covariance matrix has been assumed and the Kenward-Roger adjustment has been used for the degrees of freedom. The least square means in each treatment group, the least square mean differences between treatments, their 95% CIs and associated p-values at each visit will be estimated by the model.
It is described e.g. in U.S. Pat. No. 6,367,470.

[4] = tested on: Pseudomonas aeruginosa; test: PROMIS 1: P. aeruginosa density in sputum; format: in vivo; conditions: for Mean change from baseline in P. aeruginosa density: mITT
Text: Least square means in each treatment group, least square mean difference between treatments, their 95% CIs and associated p-values have been estimated.
Summary statistics of the P. aeruginosa density (log 10 CFU/g sputum) and change from baseline (Visit 2) will be provided by treatment group for each trial visit.
Results of the quantitative analysis for P. aeruginosa density will be presented as colony forming units (CFU) count per gram sputum.

[5] = tested on: bronchiectasis patients with P. aeruginosa; conditions: cited from earlier work; for time to first exacerbation compared to placebo: 1 MU twice daily through the I-neb, up to 6 months (PPCTP/001, Haworth 2014)
[6] = sensitivity analysis, alternative definition of exacerbation

Compound: O=C(O)c1cn(C2CC2)c2cc(N3CCNCC3)c(F)cc2c1=O [ciprofloxacin]
- trial outcome, primary endpoints ([1]; ORBIT-3 and RESPIRE-2 trials): failed to achieve their primary endpoints
- trial outcome, time of first exacerbation and rate of exacerbations vs placebo ([1]; ORBIT-4 and RESPIRE-1 trials): showed clinical benefit

Compound: colistimethate sodium [CMS]
- subjects with severe NCFB pulmonary exacerbations ([2]; 19/176 subjects): 10.8%
- LS mean NCFB pulmonary exacerbation annual rate ([2]; PP Population): 0.491
- LS mean rate ratio of CMS relative to placebo ([2]; PP Population): 0.583
- reduction in pulmonary exacerbation rate vs placebo ([2]; PP Population): 42%
- mean annual exacerbation rate (LS Mean) ([2]; adherent subjects (adherence>80%)): 0.494
- median time to first severe NCFB pulmonary exacerbation, 25th and 75th percentile ([2]; human, in vivo): not reached
- reduction in the rate of severe pulmonary exacerbations compared to placebo ([2]; human, in vivo): 59%
- reduction in the risk of the first exacerbation event compared to placebo ([2]; mITT): 41%
- annual rate of exacerbations ([2]; mITT, CMS 1 MIU by I-neb twice a day, 12 months): 0.58 per patient per year
- hazard ratio, time to first NCFB pulmonary exacerbation ([2]; mITT): 0.590
- hazard ratio, time to first NCFB pulmonary exacerbation ([2]; mITT, listed as CMS I-neb): 0.59
- median time to first NCFB pulmonary exacerbation ([2]; mITT, from first dose of IMP): not reached
- subjects who experienced a pulmonary exacerbation during the study ([2]; mITT, n=68): 38.6%
- reduction in the annual rate of pulmonary exacerbations relative to placebo ([2]; mITT, primary analysis): 39%
- rate ratio of CMS relative to placebo, NCFB pulmonary exacerbation annual rate ([2]; mITT, primary analysis): 0.612
- rate ratio of CMS relative to placebo, NCFB pulmonary exacerbation annual rate ([2]; mITT, primary analysis, listed as CMS I-neb): 0.61
- LS Mean rate ratio, pulmonary exacerbations ([2]; post-hoc analyses with low-recruiting countries combined): 0.591
- LS mean NCFB pulmonary exacerbation annual rate ([2]; sensitivity analysis, alternative (ERS 2017) definition of exacerbation, mITT): 0.538
- LS mean rate ratio of CMS relative to placebo [2, 6]: 0.642
- reduction in pulmonary exacerbation rate vs placebo [2, 6]: 36%
- LS Mean severe NCFB pulmonary exacerbation annual rate ([2]; severe = requiring intravenous antibiotics and/or hospitalisation): 0.116
- LS Mean rate ratio of CMS relative to placebo, severe exacerbations ([2]; severe NCFB pulmonary exacerbations): 0.409
- treatment difference in SGRQ total score by LS means [3]: 4.552
- LS mean difference in P. aeruginosa density, CMS vs placebo ([4]; after 1 month): −1.620
- Mean change from baseline in P. aeruginosa density ([4]; Visit 3 (28 days)): −1.59 log10(CFU/mL)
- Mean change from baseline in P. aeruginosa density ([4]; Visit 5 (6 months)): −1.39 log10(CFU/mL)
- Mean change from baseline in P. aeruginosa density ([4]; Visit 6 (9 months)): −1.56 log10(CFU/mL)
- Mean change from baseline in P. aeruginosa density ([4]; Visit 7 (12 months/EOT)): −0.86 log10(CFU/mL)
- course of P. aeruginosa density under treatment ([4]; over the study): fell rapidly and remained suppressed; also recorded: falls rapidly and remains suppressed
- time to first exacerbation compared to placebo [5]: not statistically different from the placebo group
- frequency of adverse respiratory effects (cough, dyspnoea, bronchospasm, sore throat) ([5]; human, in vivo): at least 1 in 10 people
- admissions to emergency and days of hospitalization ([5]; observational study, 44 patients, 6 or 12 months, vs period preceding treatment (Lopez Gil Otero 2019)): reduced admissions to emergency and days of hospitalization

Compound: colistin
- time to first exacerbation compared to placebo [5]: not to be associated with a statistically significant improvement
